This note sets out measurements from PMC10184130.

Series [1] is described as follows: Pharmacokinetics analysis in mice (oral; plasma and brain). It is filed as in vivo. To be noted: for AUC0-24h / Cmax / MRT: plasma; for concentration at 2 h / Kp at 2 h / concentration at 24 h: male, C57BL/6J, mouse, brain; for Kp at 2 h: read-out: Brain to plasma ratio 2 h. The method, then: Male C57BL/6J mice were purchased from The Jackson Laboratory Japan, Inc. (Kanagawa, Japan). […] The compound was dissolved in 10% DMSO/10% Cremophor EL/20% PEG400/60% 0.1 mol/L citric acid solution and administered orally at doses of 10, 30, or 100 mg/kg. Blood samples were collected into heparinized tubes at the designated time points (0.5, 1, 2, 4, 8, and 24 h postdosing), and brains were also collected at 2 and 24 h postdosing. Plasma was separated from the blood samples by centrifugation. The plasma and brain concentrations were quantified with high-performance liquid chromatography–tandem mass spectrometry. The lower limit of quantitation was 1 ng/mL for plasma and 5 ng/mL for brains.

The next series has as its target T1, human MASP2 (Homo sapiens, UniProt O00187).
T1 construct: Recombinant human MASP2 (298–686 aa) fused with both the N-terminal IgG signal peptide; IgG signal peptide (N); His tag (C); made in house; host or cells: Expi293 cells
Briefly: Human MASP2 enzyme assay. The class given is biochemical. Conditions: supplementary csv. The method, then:
Recombinant human MASP2 (298–686 aa) fused with both the N-terminal IgG signal peptide and the C-terminal His tag was expressed in Expi293 cells and purified. The assay was performed in a 384-well black plate in a total volume of 6 μL of the assay buffer 1. After 20 nL of compound solution was added to the plate, 3 μL of substrate solution containing a 20 μmol/L Z-Gly-Arg-SBzl peptide and 20 μmol/L BES-Thio (FUJIFILM Wako, Osaka, Japan) was added to the plate. Then, 0.6 nmol/L human MASP2 was added to the plate and incubated at room temperature for 60 min. The fluorescence at an excitation wavelength of 485 nm and an emission wavelength of 535 nm was detected using an EnVision multilabel plate reader.

The target in another series is T2, human C1s (Homo sapiens, UniProt P09871).
T2 construct: Recombinant human C1s (358–688 aa) fused with both the N-terminal IgG signal peptide; IgG signal peptide (N); His tag (C); made in house; host or cells: HEK293 cells
T2 sequence (P09871 358-688): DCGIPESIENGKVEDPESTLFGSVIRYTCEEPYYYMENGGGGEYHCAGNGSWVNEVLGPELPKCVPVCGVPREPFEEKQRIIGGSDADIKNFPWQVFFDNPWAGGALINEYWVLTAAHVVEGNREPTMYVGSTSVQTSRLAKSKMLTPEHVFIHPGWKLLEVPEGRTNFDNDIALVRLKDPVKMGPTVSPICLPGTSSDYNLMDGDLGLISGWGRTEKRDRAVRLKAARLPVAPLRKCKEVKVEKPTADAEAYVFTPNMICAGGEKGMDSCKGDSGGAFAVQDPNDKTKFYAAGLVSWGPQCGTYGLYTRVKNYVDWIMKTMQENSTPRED
The series can be described thus: Human C1s enzyme assay. The class given is biochemical. Conditions: 95% confidence intervals in parentheses. The method, then:
Recombinant human C1s (358–688 aa) fused with both the N-terminal IgG signal peptide and the C-terminal His tag was expressed in HEK293 cells and purified. The assay was performed in a 384-well clear plate in a total volume of 20 μL of an assay buffer 1 [50 mmol/L Tris–HCl (pH 7.5), 150 mmol/L NaCl, 0.01% (w/v) Tween 20, and 0.01% (w/v) BSA]. Compounds were dissolved in DMSO and diluted to various concentrations. After 20 nL of compound solution was added to the plate, 10 μL of substrate solution containing a 250 μmol/L Z-Lys-SBzl peptide (Watanabe Chemical, Hiroshima, Japan) and 250 μmol/L DTNB (5,5′-dithiobis(2-nitrobenzoic acid)) (Sigma, MO, USA) was added to the plate. Then, 8 nmol/L human C1s was added to the plate and incubated at room temperature for 60 min. The absorbance at 405 nm was detected using an EnVision multilabel plate reader. […] The IC50 values were calculated using IDBS XLfit software.

Another series addresses human trypsin. Briefly: Human trypsin enzyme assay. Conditions: supplementary csv. It is filed as biochemical. The method, then: Recombinant human trypsin (FUJIFILM Wako, Osaka, Japan) and the substrate were diluted in an assay buffer [50 mmol/L Tris–HCl (pH 7.5), 145 mmol/L NaCl, 2 mmol/L CaCl2, and 0.01% (w/v) Tween 20]. After 20 nL of compound solution was added to a 384-well black plate, 3 μL of substrate solution containing 25 μmol/L Boc-Phe-Ser-Arg-MCA (Peptide Institute, Osaka, Japan) was added to the plate. Then, 6 mU/mL human trypsin was added to the plate and incubated at room temperature for 60 min. The fluorescence at an excitation wavelength of 360 nm and an emission wavelength of 460 nm was detected using an EnVision multilabel plate reader.

A further series addresses human kallikrein. Briefly: Human kallikrein enzyme assay. The class given is biochemical. To be noted: supplementary csv. The method, then: Recombinant human kallikrein (R&D Systems, MN, USA) was activated by thermolysin (R&D Systems, MN, USA) prior to use. Compounds were dissolved in DMSO and then diluted in an assay buffer [50 mmol/L Tris–HCl (pH 7.5), 150 mmol/L NaCl, 10 mmol/L CaCl2, and 0.01% (w/v) Tween 20]. After 5 μL of compound solution was added to a 384-well black plate, 5 μL of substrate solution containing 150 μmol/L Pro-Phe-Arg-AMC (Peptide Institute, Osaka, Japan) was added to the plate. Then, 0.42 nmol/L human kallikrein was added to the plate and incubated at room temperature for 60 min. The fluorescence at an excitation wavelength of 380 nm and an emission wavelength of 460 nm was detected using a SpectraMax Paradigm plate reader.

Read-outs that look alike come from different tables or passages of the source. Where only a bound is given, the exact number is not on record here.

T1 sequence (O00187 298-686): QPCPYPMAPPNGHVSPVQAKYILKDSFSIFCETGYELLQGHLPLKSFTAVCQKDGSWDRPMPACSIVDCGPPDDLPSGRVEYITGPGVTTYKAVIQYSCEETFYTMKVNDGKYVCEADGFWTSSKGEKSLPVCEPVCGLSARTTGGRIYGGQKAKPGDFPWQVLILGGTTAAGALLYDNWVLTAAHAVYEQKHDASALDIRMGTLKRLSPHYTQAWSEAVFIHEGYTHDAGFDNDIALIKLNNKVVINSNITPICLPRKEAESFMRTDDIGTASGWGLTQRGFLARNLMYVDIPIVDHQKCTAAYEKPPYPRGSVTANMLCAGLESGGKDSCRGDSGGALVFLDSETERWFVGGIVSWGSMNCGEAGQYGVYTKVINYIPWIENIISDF

In series [1] (10 mg/kg), `Cc1cc([C@H]2CN(c3cc(F)c4c(N)nncc4c3)CCN2c2cccc(F)c2)no1` [Compound (R)-8, 8-Fluoro-6-[(3R)-4-(3-fluorophenyl)-3-(5-methyl-1,2-oxazol-3-yl)piperazin-1-yl]phthalazin-1-amine] came in with an AUC0-24h of 6017.8 ± 390.4 ng·h/mL, a Cmax of 1032.5 ± 173.0 ng/mL, an MRT of 4.31 ± 0.23 h and a concentration at 2 h of 560 ± 106 ng/g. Moreover, in series [1] (10 mg/kg), the Kp at 2 h amounted to 0.7 and the concentration at 24 h was found to be 5.2 ± 0.2 ng/g. Besides, in series [1] (30 mg/kg), the AUC0-24h was determined as 21928.6 ± 1428.2 ng·h/mL, the Cmax was determined as 2583.3 ± 267.1 ng/mL, the MRT was 5.02 ± 0.18 h and the concentration at 2 h was determined as 3830 ± 935 ng/g. Also, in series [1] (30 mg/kg), the Kp at 2 h was 1.7 and the concentration at 24 h was found to be 8.9 ± 3.8 ng/g. Moreover, in series [1] (100 mg/kg), the AUC0-24h stood at 139341.0 ± 36760.1 ng·h/mL, the Cmax came out at 8895.5 ± 1516.8 ng/mL, the mean residence time (MRT) came out at 7.66 ± 0.99 h and the concentration at 2 h was determined as 33600 ± 19300 ng/g. Also, in series [1] (100 mg/kg), the Kp at 2 h amounted to 6 and the concentration at 24 h is 1860 ± 2400 ng/g. This compound also gave an IC50 on human MASP2 of more than 30 µM. On human C1s, the IC50 worked out at 0.036 µM. The compound further yielded an IC50 on human trypsin of more than 30 µM. At human kallikrein, this compound showed an IC50 of more than 30 µM.

What is called Cmax is the highest concentration seen after dosing. In general, MRT refers to the average time that molecules of a dose stay in the body. By IC50 is commonly meant the point on the concentration scale where inhibition reaches its midpoint.
